Values joined by “and” are separate entries in the source; they are usually repeats but may differ in a detail not shown here. Equal entries are not always repeated. Inconclusive results and toxic doses are left out.
Tested on: BDF1 mice, L1210 leukemia sc, survival T/C
Assay: NCI In Vivo Anticancer Drug Screen. Data for tumor model L1210 Leukemia (subcutaneous) in B6D2F1 (BDF1) mice
Conditions: higher = longer survival
In short: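 Tumors were transplanted into mice, the animals were treated with compound, survival or tumor size was then measured, and treated values were divided by vehicle-control values.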

SMILES: O=C1CN=C(c2ccc[nH]2)c2cc(Cl)ccc2N1
- T/C (endpoint: median survival time, dose: 2.5 mg/kg/injection, schedule: Q01DX009 (ip), vehicle: clinical formulation): 100 % of control
- T/C (endpoint: median survival time, dose: 2.5 mg/kg/injection, schedule: Q01DX009 (sc), vehicle: clinical formulation): 88 % of control
- T/C (endpoint: median survival time, dose: 5.0 mg/kg/injection, schedule: Q01DX009 (ip), vehicle: clinical formulation): 100 % of control
- T/C (endpoint: median survival time, dose: 5.0 mg/kg/injection, schedule: Q01DX009 (sc), vehicle: clinical formulation): 88 % of control
- T/C (endpoint: median survival time, dose: 10.0 mg/kg/injection, schedule: Q01DX009 (ip), vehicle: clinical formulation): 88 % of control
- T/C (endpoint: median survival time, dose: 10.0 mg/kg/injection, schedule: Q01DX009 (sc), vehicle: clinical formulation): 88 % of control
- T/C (endpoint: median survival time, dose: 12.5 mg/kg/injection, schedule: Q01DX009 (ip), vehicle: Klucel (hydroxypropylcellulose) (HPC)): 100 % of control
- T/C (endpoint: median survival time, dose: 12.5 mg/kg/injection, schedule: Q01DX009 (sc), vehicle: Klucel (hydroxypropylcellulose) (HPC)): 94 % of control
- T/C (endpoint: median survival time, dose: 20.0 mg/kg/injection, schedule: Q01DX009 (ip), vehicle: clinical formulation): 100 % of control
- T/C (endpoint: median survival time, dose: 20.0 mg/kg/injection, schedule: Q01DX009 (sc), vehicle: clinical formulation): 88 % of control
- T/C (endpoint: median survival time, dose: 25.0 mg/kg/injection, schedule: Q01DX009 (ip), vehicle: Klucel (hydroxypropylcellulose) (HPC)): 88 % of control
- T/C (endpoint: median survival time, dose: 25.0 mg/kg/injection, schedule: Q01DX009 (sc), vehicle: Klucel (hydroxypropylcellulose) (HPC)): 100 % of control
- T/C (endpoint: median survival time, dose: 40.0 mg/kg/injection, schedule: Q01DX009 (ip), vehicle: clinical formulation): 100 % of control
- T/C (endpoint: median survival time, dose: 40.0 mg/kg/injection, schedule: Q01DX009 (sc), vehicle: clinical formulation): 88 % of control
- T/C (endpoint: median survival time, dose: 50.0 mg/kg/injection, schedule: Q01DX009 (ip), vehicle: Klucel (hydroxypropylcellulose) (HPC)): 100 % of control
- T/C (endpoint: median survival time, dose: 50.0 mg/kg/injection, schedule: Q01DX009 (ip), vehicle: steriod suspending solution): 111 % of control
- T/C (endpoint: median survival time, dose: 50.0 mg/kg/injection, schedule: Q01DX009 (sc), vehicle: Klucel (hydroxypropylcellulose) (HPC)): 100 % of control
- T/C (endpoint: median survival time, dose: 50.0 mg/kg/injection, schedule: Q01DX009 (sc), vehicle: steriod suspending solution): 100 % of control
- T/C (endpoint: median survival time, dose: 80.0 mg/kg/injection, schedule: Q01DX009 (ip), vehicle: clinical formulation): 88 % of control
- T/C (endpoint: median survival time, dose: 80.0 mg/kg/injection, schedule: Q01DX009 (ip), vehicle: other): 100 % of control
- T/C (endpoint: median survival time, dose: 80.0 mg/kg/injection, schedule: Q01DX009 (sc), vehicle: clinical formulation): 100 % of control
- T/C (endpoint: median survival time, dose: 100.0 mg/kg/injection, schedule: Q01DX009 (ip), vehicle: Klucel (hydroxypropylcellulose) (HPC)): 155 % of control
- T/C (endpoint: median survival time, dose: 100.0 mg/kg/injection, schedule: Q01DX009 (ip), vehicle: steriod suspending solution): 111 % of control
- T/C (endpoint: median survival time, dose: 100.0 mg/kg/injection, schedule: Q01DX009 (sc), vehicle: Klucel (hydroxypropylcellulose) (HPC)): 111 % of control
- T/C (endpoint: median survival time, dose: 100.0 mg/kg/injection, schedule: Q01DX009 (sc), vehicle: steriod suspending solution): 100 % of control
- T/C (endpoint: median survival time, dose: 100.0 mg/kg/injection, schedule: Q08DX009 (sc), vehicle: Klucel (hydroxypropylcellulose) (HPC)): 100 % of control and 101 % of control
- T/C (endpoint: median survival time, dose: 200.0 mg/kg/injection, schedule: Q01DX009 (ip), vehicle: steriod suspending solution): 111 % of control
- T/C (endpoint: median survival time, dose: 200.0 mg/kg/injection, schedule: Q01DX009 (sc), vehicle: Klucel (hydroxypropylcellulose) (HPC)): 172 % of control
- T/C (endpoint: median survival time, dose: 200.0 mg/kg/injection, schedule: Q01DX009 (sc), vehicle: steriod suspending solution): 105 % of control
- T/C (endpoint: median survival time, dose: 200.0 mg/kg/injection, schedule: Q08DX009 (sc), vehicle: Klucel (hydroxypropylcellulose) (HPC)): 105 % of control
- T/C (endpoint: median survival time, dose: 400.0 mg/kg/injection, schedule: Q01DX009 (ip), vehicle: steriod suspending solution): 150 % of control
- T/C (endpoint: median survival time, dose: 400.0 mg/kg/injection, schedule: Q01DX009 (sc), vehicle: Klucel (hydroxypropylcellulose) (HPC)): 183 % of control
- T/C (endpoint: median survival time, dose: 400.0 mg/kg/injection, schedule: Q01DX009 (sc), vehicle: steriod suspending solution): 166 % of control
- T/C (endpoint: median survival time, dose: 400.0 mg/kg/injection, schedule: Q08DX009 (sc), vehicle: Klucel (hydroxypropylcellulose) (HPC)): 98 % of control and 100 % of control
- T/C (endpoint: median survival time, dose: 800.0 mg/kg/injection, schedule: Q01DX009 (sc), vehicle: steriod suspending solution): 166 % of control
- T/C (endpoint: median survival time, dose: 2313.0 mg/kg/injection, schedule: Q01DX009 (sc), vehicle: Klucel (hydroxypropylcellulose) (HPC)): 88 % of control and 93 % of control
- T/C (endpoint: median survival time, dose: 3855.0 mg/kg/injection, schedule: Q01DX009 (sc), vehicle: Klucel (hydroxypropylcellulose) (HPC)): 87 % of control

SMILES: CN(C)CCNc1ccc([N+](=O)[O-])c2sc3ccccc3c(=O)c12
- T/C (endpoint: median survival time, dose: 14.0 mg/kg/injection, schedule: Q01DX Z (sc), vehicle: carboxymethylcellulose (CMC)): 100 % of control
- T/C (endpoint: median survival time, dose: 23.0 mg/kg/injection, schedule: Q01DX Z (sc), vehicle: carboxymethylcellulose (CMC)): 100 % of control
- T/C (endpoint: median survival time, dose: 39.0 mg/kg/injection, schedule: Q01DX Z (sc), vehicle: carboxymethylcellulose (CMC)): 100 % of control
- T/C (endpoint: median survival time, dose: 65.0 mg/kg/injection, schedule: Q01DX Z (sc), vehicle: carboxymethylcellulose (CMC)): 100 % of control and 111 % of control
- T/C (endpoint: median survival time, dose: 108.0 mg/kg/injection, schedule: Q01DX Z (sc), vehicle: carboxymethylcellulose (CMC)): 100 % of control
- T/C (endpoint: median survival time, dose: 180.0 mg/kg/injection, schedule: Q01DX Z (sc), vehicle: carboxymethylcellulose (CMC)): 111 % of control
- T/C (endpoint: median survival time, dose: 300.0 mg/kg/injection, schedule: Q01DX Z (sc), vehicle: carboxymethylcellulose (CMC)): 105 % of control

SMILES: N[C@H](C(=O)O)[C@H]1ON=C(Cl)[C@@H]1O
- T/C (endpoint: median survival time, dose: 8.0 mg/kg/injection, schedule: Q01DX009 (sc), vehicle: saline): 111 % of control
- T/C (endpoint: median survival time, dose: 32.0 mg/kg/injection, schedule: Q01DX009 (sc), vehicle: saline): 150 % of control and 156 % of control
- T/C (endpoint: median survival time, dose: 64.0 mg/kg/injection, schedule: Q01DX009 (sc), vehicle: saline): 153 % of control and 156 % of control
- T/C (endpoint: median survival time, dose: 128.0 mg/kg/injection, schedule: Q01DX009 (sc), vehicle: saline): 156 % of control and 160 % of control
- T/C (endpoint: median survival time, dose: 256.0 mg/kg/injection, schedule: Q01DX009 (sc), vehicle: saline): 157 % of control and 176 % of control
- T/C (endpoint: median survival time, dose: 512.0 mg/kg/injection, schedule: Q01DX009 (sc), vehicle: saline): 176 % of control
- T/C (endpoint: median survival time, dose: 1024.0 mg/kg/injection, schedule: Q01DX009 (sc), vehicle: saline): 177 % of control

SMILES: COc1cc(NS(C)(=O)=O)ccc1Nc1c2ccccc2nc2ccccc12
- T/C (endpoint: mean survival time, dose: 0.75 mg/kg/injection, schedule: Q01DX009 (ip), vehicle: saline): 97 % of control
- T/C (endpoint: mean survival time, dose: 1.25 mg/kg/injection, schedule: Q01DX009 (ip), vehicle: saline): 100 % of control
- T/C (endpoint: mean survival time, dose: 1.5 mg/kg/injection, schedule: Q01DX009 (ip), vehicle: saline): 99 % of control
- T/C (endpoint: mean survival time, dose: 2.5 mg/kg/injection, schedule: Q01DX009 (ip), vehicle: saline): 104 % of control
- T/C (endpoint: mean survival time, dose: 3.0 mg/kg/injection, schedule: Q01DX009 (ip), vehicle: saline): 110 % of control
- T/C (endpoint: mean survival time, dose: 5.0 mg/kg/injection, schedule: Q01DX009 (ip), vehicle: saline): 103 % of control and 112 % of control
- T/C (endpoint: mean survival time, dose: 6.0 mg/kg/injection, schedule: Q01DX009 (ip), vehicle: saline): 110 % of control
- T/C (endpoint: mean survival time, dose: 10.0 mg/kg/injection, schedule: Q01DX009 (ip), vehicle: saline): 100 % of control
- T/C (endpoint: median survival time, dose: 0.5 mg/kg/injection, schedule: Q01DX009 (ip), vehicle: other): 103 % of control
- T/C (endpoint: median survival time, dose: 1.0 mg/kg/injection, schedule: Q01DX009 (ip), vehicle: other): 102 % of control
- T/C (endpoint: median survival time, dose: 2.0 mg/kg/injection, schedule: Q01DX009 (ip), vehicle: other): 103 % of control
- T/C (endpoint: median survival time, dose: 4.0 mg/kg/injection, schedule: Q01DX009 (ip), vehicle: other): 118 % of control

SMILES: O=C(Nc1ccc(NC(=O)Nc2cccc(C3=NCCN3)c2)cc1)Nc1cccc(C2=NCCN2)c1
- T/C (endpoint: median survival time, dose: 23.0 mg/kg/injection, schedule: Q01DX Z (sc), vehicle: saline): 100 % of control
- T/C (endpoint: median survival time, dose: 39.0 mg/kg/injection, schedule: Q01DX Z (sc), vehicle: saline): 110 % of control
- T/C (endpoint: median survival time, dose: 65.0 mg/kg/injection, schedule: Q01DX Z (sc), vehicle: saline): 100 % of control
- T/C (endpoint: median survival time, dose: 108.0 mg/kg/injection, schedule: Q01DX Z (sc), vehicle: saline): 95 % of control
- T/C (endpoint: median survival time, dose: 180.0 mg/kg/injection, schedule: Q01DX Z (sc), vehicle: saline): 100 % of control
- T/C (endpoint: median survival time, dose: 300.0 mg/kg/injection, schedule: Q01DX Z (sc), vehicle: saline): 100 % of control

SMILES: CC[C@H]1CN2CCc3cc(OC)c(OC)cc3[C@@H]2C[C@@H]1C[C@H]1NCCc2cc(OC)c(OC)cc21
- T/C (endpoint: median survival time, dose: 0.39 mg/kg/injection, schedule: Q03HX003 (sc), vehicle: saline): 107 % of control
- T/C (endpoint: median survival time, dose: 0.65 mg/kg/injection, schedule: Q03HX003 (sc), vehicle: saline): 92 % of control
- T/C (endpoint: median survival time, dose: 1.08 mg/kg/injection, schedule: Q03HX003 (sc), vehicle: saline): 100 % of control
- T/C (endpoint: median survival time, dose: 1.8 mg/kg/injection, schedule: Q01DX009 (sc), vehicle: saline): 100 % of control
- T/C (endpoint: median survival time, dose: 1.8 mg/kg/injection, schedule: Q03HX003 (sc), vehicle: saline): 114 % of control
- T/C (endpoint: median survival time, dose: 3.0 mg/kg/injection, schedule: Q01DX009 (sc), vehicle: saline): 103 % of control
- T/C (endpoint: median survival time, dose: 5.0 mg/kg/injection, schedule: Q04DX003 (sc), vehicle: saline): 96 % of control
- T/C (endpoint: median survival time, dose: 8.4 mg/kg/injection, schedule: Q04DX003 (sc), vehicle: saline): 107 % of control
- T/C (endpoint: median survival time, dose: 16.0 mg/kg/injection, schedule: Q01DX001 (ip), vehicle: acid diluted with saline): 124 % of control

From PubChem BioAssay AID250 (DTP/NCI, 2004)
